These results are taken from article PMC11411213 (Journal of Molecular Cell Biology, 2024).

The subject of data set [1] is intracellular ROS levels in Calu-3 cells. The class given is cell-based, human.
The nature of a further data set: in vitro. The following applies: human.
Another data set concerns SARS-CoV-2 Delta strain. The following applies: mouse, in vivo.
Data set [2] concerns pseudotyped vesicular stomatitis virus (VSV) that contains SARS-CoV-2 Spike protein. The class given is cell-based.

Take `N[C@@H](CCC(=O)N[C@@H](CS)C(=O)NCC(=O)O)C(=O)O` [GSH, glutathione]: in data set [1], the “intracellular ROS levels after 24 h treatment” value was “reduced ROS levels”.

As to `COc1cc(Nc2ncc(F)c(Nc3ccc4c(n3)NC(=O)C(C)(C)O4)n2)cc(OC)c1OC` [Tamatinib], the CC50 in the data set “in vitro” came to 5.74 ± 0.354 µM. The “cytotoxic activity (in words)” value with Calu-3 cells was “cytotoxic in the micromolar range”.

In the case of imidazole ketone erastin [IKE], in data set [1], the “intracellular ROS levels after 24 h treatment” value was “reduced the basal ROS level”; the “intracellular ROS levels after SARS-CoV-2 infection with 24 h pretreatment” value is on record as “prevented virus-induced ROS bursts”; the “intracellular ROS levels over time after administration” value is listed as “biphasic trend, with an initial increase at early time points (0–6 h) followed by a substantial decrease at a later time point (24 h)”. Further, the CC50 with Calu-3 cells worked out at 9.29 ± 0.324 µM.

`O=C(O)c1cc(/N=N/c2ccc(S(=O)(=O)Nc3ccccn3)cc2)ccc1O` [Sulfasalazine] showed a CC50 in the data set “in vitro” above 500 µM. For the same compound, the “cytotoxic activity (in words)” value in the data set with Calu-3 cells was “no cytotoxicity at any of the tested concentrations”.

In the case of `COc1cc2c(Nc3ccc(Br)cc3F)ncnc2cc1OCC1CCN(C)CC1` [Vandetanib], in the data set “in vitro”, the CC50 came out at 3.76 ± 0.132 µM. Besides, in the data set on Calu-3 cells, the “cytotoxic activity (in words)” value is listed as “cytotoxic in the micromolar range”.

As to MKI-1, in the data set on Calu-3 cells, the CC50 stood at 0.892 ± 0.001 µM and the “cytotoxic activity (in words)” value is listed as “cytotoxic in the high nanomolar range”.

Take N-acetyl cysteine [NAC]: in the data set on SARS-CoV-2 Delta strain, the “IHC analysis of the N protein in the lungs” value is “confirmed by immunohistochemistry”; the “levels of viral transcripts N and RdRp in lungs (qPCR)” value is “significantly lower levels of viral transcripts than untreated mice”. The “intracellular ROS levels after 24 h treatment” value in data set [1] was “reduced ROS levels”. Further, the “effect on SARS-CoV-2 entry (Spike pseudovirus luciferase)” value in data set [2] is listed as “did not observe any effect”. For the same compound, the CC50 in the data set on Calu-3 cells is above 5000 µM.
